{"source": "patent US10583121B2", "about": "“Patch” (HISAMITSU PHARMACEUTICAL CO., INC., priority 2012, dated 2020)", "test": "Oral (sublingual) administration of 5 mg asenapine maleate, plasma AUC and adverse effects", "type": "in vivo, healthy adult men", "experimental": "Furthermore, in a case where the patch obtained in Example 1 was administered, the incidence proportion of adverse effects on the cardiovascular system in the AUC measurement test was 6%. Note that when 5 mg of asenapine maleate was orally administered (sublingual administration) to the healthy adult men (18 people), the average value of the area under plasma concentration-time curve of the free asenapine for a period between 10 minutes and 72 hours after the administration (AUC0.17-72) was 32,074 pg·hr/mL, the average value of the AUC0.17-72 of the N-desmethyl asenapine was 14,299 pg·hr/mL, and the incidence proportion of adverse effects on the cardiovascular system was 39%.", "note": "Where a name gives a salt, the structure may show the parent alone.", "data": [{"smiles": "CN1C[C@@H]2c3ccccc3Oc3ccc(Cl)cc3[C@H]2C1", "note": "(relative stereo) [asenapine maleate, trans-5-chloro-2-methyl-2,3,3a,12b-tetrahydro-1H-dibenz[2,3:6,7]oxepino[4,5-c]pyrrole]", "values": [{"measurement": "AUC0.17-72 of the free asenapine", "setting": "10 minutes to 72 hours after administration", "value": "32,074 pg·hr/mL"}, {"measurement": "incidence proportion of adverse effects on the cardiovascular system", "setting": "healthy adult men (18 people)", "value": 39, "unit": "%"}]}]}
